Test results reported in PMC10065799, “High-throughput profiling of sequence recognition by tyrosine kinases and SH2 domains using bacterial peptide display” (eLife, 2023).

Assays:
[1] = biological target: T1, c-Abl kinase domain (Mus musculus, UniProt P00520); assay: ADP-Quest continuous fluorimetric kinase assay (Michaelis-Menten parameters and initial rates); assay type: biochemical; conditions: peptide 100 μM, kinase 10–50 nM; Figure 2C
T1 sequence (P00520 242-493 limits assumed): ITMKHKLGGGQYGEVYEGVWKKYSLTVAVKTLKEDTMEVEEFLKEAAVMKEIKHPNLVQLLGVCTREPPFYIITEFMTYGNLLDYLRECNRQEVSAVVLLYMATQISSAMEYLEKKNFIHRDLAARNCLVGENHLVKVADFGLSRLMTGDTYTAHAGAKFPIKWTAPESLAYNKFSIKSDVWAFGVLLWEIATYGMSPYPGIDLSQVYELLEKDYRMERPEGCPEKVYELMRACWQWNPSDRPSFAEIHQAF

[2] = biological target: T2, c-Src kinase domain (Homo sapiens, UniProt P12931); assay: as above; assay type: biochemical
[3] = system: Fer kinase domain; assay: pTyr-Var library bacterial peptide display kinase screen (enrichment scores); assay type: biochemical, mouse; conditions: for Fer mean of log2(enrichment): mean of log2 of enrichment over R1-R4; for Fer enrich. R1 / Fer enrich. R3 / Fer enrich. R4: pTyr-Var library, enrichment score; for Fer enrich. R1: replicate 1; for Fer enrich. R3: replicate 3; for Fer enrich. R4: replicate 4
[4] = system: MERTK kinase domain; assay: as above; assay type: biochemical, human; conditions: for mean of log2(reference): mean of log2 enrichment of reference peptide, n = 4
[5] = system: Grb2 SH2 domain; assay: pTyr-Var library SH2 domain screen with SH2-dynabeads (enrichment scores); conditions: R1-R3
[6] = system: EPHB2 kinase domain; assay: pTyr-Var library bacterial peptide display kinase screen (enrichment scores); assay type: biochemical, human; conditions: mean of log2 enrichment of reference peptide, n = 4
[7] = system: AncSZ kinase domain; assay: as above; assay type: biochemical; conditions: for AncSZ mean of log2(enrichment): mean of log2 of enrichment over R1-R5; for AncSZ enrich. R1 / AncSZ enrich. R3 / AncSZ enrich. R4 / AncSZ enrich. R5: pTyr-Var library, enrichment score; for AncSZ enrich. R1: replicate 1; for AncSZ enrich. R3: replicate 3; for AncSZ enrich. R4: replicate 4; for AncSZ enrich. R5: replicate 5
[8] = system: Hck kinase domain; assay: as above; assay type: biochemical, human; conditions: for Hck mean of log2(enrichment): mean of log2(variant) / mean of log2(reference), R1-R4; for Hck enrich. R1 / Hck enrich. R3 / Hck enrich. R4: pTyr-Var library, enrichment score; for Hck enrich. R1: replicate 1; for Hck enrich. R3: replicate 3; for Hck enrich. R4: replicate 4
[9] = system: Fyn kinase domain; assay: as above; assay type: biochemical, human; conditions: for Fyn mean of log2(enrichment): mean of log2 of enrichment over R1-R4; for Fyn enrich. R1 / Fyn enrich. R3 / Fyn enrich. R4: pTyr-Var library, enrichment score; for Fyn enrich. R1: replicate 1; for Fyn enrich. R3: replicate 3; for Fyn enrich. R4: replicate 4
[10] = system: FGFR3 kinase domain; assay: as above; assay type: biochemical, human; conditions: n = 5
[11] = system: EPHB1 kinase domain; assay: as above; assay type: biochemical, human; conditions: mean of log2 enrichment of reference peptide, n = 4
[12] = system: FGFR1 kinase domain; assay: as above; assay type: biochemical, human; conditions: n = 5
[13] = biological target: c-Src SH2 domain (Homo sapiens, UniProt P12931); assay: pTyr-Var library SH2 domain screen with SH2-dynabeads (enrichment scores); conditions: mean of log2 enrichment of reference peptide, R1-R3; sheet c-Src
[14] = system: SHP2 C-SH2 domain; assay: as above; conditions: R1-R3
[15] = biological target: T2, c-Src kinase domain; assay: pTyr-Var library bacterial peptide display kinase screen (enrichment scores); assay type: biochemical; conditions: for c-Src mean of log2(enrichment): mean of log2 of enrichment over R1-R4; for c-Src enrich. R1 / c-Src enrich. R3 / c-Src enrich. R4: pTyr-Var library, enrichment score; for c-Src enrich. R1: replicate 1; for c-Src enrich. R3: replicate 3; for c-Src enrich. R4: replicate 4
[16] = system: Fes; assay: as above; assay type: biochemical; conditions: mean of log2 of enrichment over R1-R6
[17] = biological target: T1, c-Abl kinase domain; assay: as above; assay type: biochemical; conditions: for c-Abl mean of log2(enrichment): mean of log2 of enrichment over R1-R4; for c-Abl enrich. R1 / c-Abl enrich. R3 / c-Abl enrich. R4: pTyr-Var library, enrichment score; for c-Abl enrich. R1: replicate 1; for c-Abl enrich. R3: replicate 3; for c-Abl enrich. R4: replicate 4
[18] = system: Jak2; assay: as above; assay type: biochemical, human; conditions: for Jak2 mean of log2(enrichment): mean of log2 of enrichment over R1-R3; for Jak2 enrich. R1 / Jak2 enrich. R3: pTyr-Var library, enrichment score; for Jak2 enrich. R1: replicate 1; for Jak2 enrich. R3: replicate 3
[19] = ADP-Quest assay, c-Src kinase domain 10 nM, 100 μM ATP, 37 °C, three to five replicates, error = standard error of global Michaelis-Menten fit

Substance	Fer mean of log2(enrichment) [3]	Fer enrich. R1 [3]	Fer enrich. R3 [3]	Fer enrich. R4 [3]	mean of log2(reference) [4]	mean of log2(reference) [5]	mean of log2(reference) [6]	AncSZ mean of log2(enrichment) [7]	AncSZ enrich. R1 [7]	AncSZ enrich. R3 [7]	AncSZ enrich. R4 [7]	AncSZ enrich. R5 [7]	Hck mean of log2(enrichment) [8]	Hck enrich. R1 [8]	Hck enrich. R3 [8]	Hck enrich. R4 [8]	Fyn mean of log2(enrichment) [9]	Fyn enrich. R1 [9]	Fyn enrich. R3 [9]	Fyn enrich. R4 [9]	also measured
Ac-GPDECIYDMFPFKKKG-NH2 [Src Consensus, c-Src consensus substrate peptide from X5-Y-X5 screen]																					phosphorylation of consensus peptide by c-Abl (initial rate relative to cognate consensus) [1]: efficiently phosphorylated; Km [2, 19]: 196 ± 38 µM; kcat [2, 19]: 4.9±0.4 s^–1; phosphorylation of consensus peptide by c-Src (initial rate relative to cognate consensus) ([2]; high concentration: peptide 100 μM, kinase 10–50 nM, Figure 2C): selective
GMAHNYRNSSQ [AASS_Y188]	-1.39	0.41	0.4208	0.3128	-1.316	-0.5728	-1.13	-0.7891	0.6022	0.4422	0.5318	0.777	0.4135	0.473	0.3667	0.3337	-1.328	0.4068	0.5016	0.6969	ref. mean ([4]; pTyr-Var library, reference peptide enrichment, mean of n = 4): 0.4184; mean of log2(reference) [10]: -1.231; mean of log2(reference) [11]: -2.084; mean of log2(reference) [12]: -1.437; mean of log2(reference) [13]: -1.119; mean of log2(reference) [14]: -0.8121; c-Src mean of log2(enrichment) [15]: -1.404; c-Src enrich. R1 [15]: 0.429; c-Src enrich. R3 [15]: 0.2705; c-Src enrich. R4 [15]: 0.4776; Fes mean of log2(enrichment) [16]: -1.191; c-Abl mean of log2(enrichment) [17]: -1.694; c-Abl enrich. R1 [17]: 0.3586; c-Abl enrich. R3 [17]: 0.2586; c-Abl enrich. R4 [17]: 0.2717; Jak2 mean of log2(enrichment) [18]: -1.234; Jak2 enrich. R1 [18]: 0.5584; Jak2 enrich. R3 [18]: 0.3848
TTGLIYIGSHD [AASDH_Y870]	-1.298	0.3587	0.5035	0.5633	-1.687	0.04072	-0.8783	-0.4681	0.7227	0.6145	0.7736	0.7032	0.4597	0.6399	0.4036	0.2897	-1.48	0.4689	0.3674	0.214	mean of log2(reference) [10]: -0.6492; mean of log2(reference) [11]: -0.5976; mean of log2(reference) [12]: -1.189; mean of log2(reference) [13]: -0.7916; mean of log2(reference) [14]: -0.7271; c-Src mean of log2(enrichment) [15]: -1.294; c-Src enrich. R1 [15]: 0.3921; c-Src enrich. R3 [15]: 0.3853; c-Src enrich. R4 [15]: 0.4379; Fes mean of log2(enrichment) [16]: -0.4107; c-Abl mean of log2(enrichment) [17]: -1.045; c-Abl enrich. R1 [17]: 0.5107; c-Abl enrich. R3 [17]: 0.4932; c-Abl enrich. R4 [17]: 0.3951; Jak2 mean of log2(enrichment) [18]: -0.485; Jak2 enrich. R1 [18]: 0.7507; Jak2 enrich. R3 [18]: 0.724
